Source: article PMC11022729 (Advanced Science, 2024)

Experiments:
Format in all cases: binding
adrenergic α1A receptor = biological target: T1, adrenergic α1A receptor (Homo sapiens, UniProt P35348); test: SafetyScreen44 panel
T1 construct: purchased Eurofins Cerep P270
Description: (§1) Measurements were performed in duplicate.
(§2) channel, which were obtainedfrom ratspecimens).
(§3) in brackets) specific for each target.

[1] = biological target: T2, serotonin 5-HT2A receptor (Homo sapiens, UniProt P28223); test: SafetyScreen44 panel
T2 construct: purchased Eurofins Cerep P270
Description: as §1, §2, §3

[2] = biological target: T3, norepinephrine transporter (NET) (Homo sapiens, UniProt P23975); test: SafetyScreen44 panel
T3 construct: purchased Eurofins Cerep P270
Description: as §1, §2, §3

[3] = biological target: T4, serotonin 5-HT2B receptor (Homo sapiens, UniProt P41595); test: SafetyScreen44 panel
T4 construct: purchased Eurofins Cerep P270
Description: as §1, §2, §3

dopamine D2S receptor = biological target: T5, dopamine D2S receptor (Homo sapiens, UniProt P14416); test: SafetyScreen44 panel
T5 construct: purchased Eurofins Cerep P270
Description: as §1, §2, §3

dopamine D1 receptor = biological target: T6, dopamine D1 receptor (Homo sapiens, UniProt P21728); test: SafetyScreen44 panel
T6 construct: purchased Eurofins Cerep P270
Description: as §1, §2, §3

[4] = biological target: T7, serotonin transporter (SET) (Homo sapiens, UniProt P31645); test: SafetyScreen44 panel
T7 construct: purchased Eurofins Cerep P270
Description: as §1, §2, §3

purified human Slack = biological target: T8, purified human Slack (Homo sapiens, UniProt Q5JUK3); test: Differential scanning fluorimetry (DSF) on purified Slack; details: 100 µM ligand concentration; for melting temperature Tm of Slack: Tm without ligand 30 °C
T8 construct: NM_02 0822.3, residues 1–1235; green fluorescent protein (GFP) (C, cleaved yes); twin strep-II-tag (C, cleaved yes); made in house; host or cells: HEK293F cells, transient transfection
T8 sequence (Q5JUK3 1-1235 isoform Q5JUK3-3): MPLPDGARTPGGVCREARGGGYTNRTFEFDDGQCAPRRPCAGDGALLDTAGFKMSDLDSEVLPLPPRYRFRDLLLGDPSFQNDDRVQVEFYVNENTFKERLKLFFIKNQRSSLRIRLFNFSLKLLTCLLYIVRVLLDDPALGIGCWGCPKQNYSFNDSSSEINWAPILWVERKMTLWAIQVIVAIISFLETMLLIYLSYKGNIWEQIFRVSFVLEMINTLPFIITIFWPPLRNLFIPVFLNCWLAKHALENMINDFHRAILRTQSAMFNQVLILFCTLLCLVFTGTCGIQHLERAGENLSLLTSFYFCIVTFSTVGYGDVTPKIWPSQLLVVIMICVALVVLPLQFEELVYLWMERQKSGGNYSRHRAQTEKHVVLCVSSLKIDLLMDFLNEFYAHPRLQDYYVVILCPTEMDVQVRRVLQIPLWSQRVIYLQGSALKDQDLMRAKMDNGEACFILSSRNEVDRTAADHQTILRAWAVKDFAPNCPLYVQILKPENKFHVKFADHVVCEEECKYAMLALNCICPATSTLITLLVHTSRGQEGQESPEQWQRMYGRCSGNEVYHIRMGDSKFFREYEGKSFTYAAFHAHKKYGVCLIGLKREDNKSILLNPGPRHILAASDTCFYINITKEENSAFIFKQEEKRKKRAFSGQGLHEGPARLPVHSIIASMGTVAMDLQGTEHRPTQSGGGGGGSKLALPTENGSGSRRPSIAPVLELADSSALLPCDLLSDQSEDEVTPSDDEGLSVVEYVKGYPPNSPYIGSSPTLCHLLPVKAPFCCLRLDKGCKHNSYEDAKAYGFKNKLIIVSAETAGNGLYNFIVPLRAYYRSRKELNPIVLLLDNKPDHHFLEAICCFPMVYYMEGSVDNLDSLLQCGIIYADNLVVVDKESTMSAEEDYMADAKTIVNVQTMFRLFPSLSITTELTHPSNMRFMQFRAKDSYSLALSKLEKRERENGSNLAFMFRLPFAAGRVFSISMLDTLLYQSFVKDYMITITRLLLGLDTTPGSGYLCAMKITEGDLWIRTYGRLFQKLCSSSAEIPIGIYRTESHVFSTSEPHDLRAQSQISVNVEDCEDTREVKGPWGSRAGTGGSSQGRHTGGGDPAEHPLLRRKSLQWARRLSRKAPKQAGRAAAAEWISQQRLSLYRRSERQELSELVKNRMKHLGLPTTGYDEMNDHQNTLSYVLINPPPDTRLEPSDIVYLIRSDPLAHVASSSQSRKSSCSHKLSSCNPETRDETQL
Description: To confirm that the cellular effect of compound 6 was mediated by its direct interaction with Slack, ligand binding on purified human Slack (Figure S6A, Supporting Information) was assessed by differential scanning fluorimetry (DSF), thereby evaluating a ligand‐dependent shift of the protein melting temperature (T m). The cysteine‐reacting dye 7‐diethylamino‐3‐(4‐maleimidophenyl)−4‐methylcoumarin (CPM), which binds to cysteine residues that are accessible during protein unfolding, was used as an indicator for protein unfolding. […] In the presence of a Slack inhibitor (compound 31 from ref. [27]), known to directly interact with the protein and therefore used as a positive control, T m saturated at 45.7 ± 3.2 °C at a ligand concentration of 100 µM (Figure S6B, Supporting Information), indicating a notable stabilization of Slack.
The melting temperature was determined from the fluorescence of 7‐diethylamino‐3‐(4‐maleimidophenyl)−4‐methylcoumarin (CPM) dye. […] Five microliters of the CPM dye (15 µg mL^−1 CPM final concentration) in the SEC buffer was added to the protein compound mixture and further incubated for 30 min on ice in the dark. The samples were centrifuged at 15 000 × g at 4 °C for 10 min to remove aggregates. Melting curves were recorded in an RT‐PCR (Thermo Fischer) using a temperature range of 10–80 °C in 1 °C‐increments, increasing every 75 s. The CPM dye was excited at a wavelength of 365 nm and the emission was measured at 470 nm.

T7 sequence (P31645 whole entry): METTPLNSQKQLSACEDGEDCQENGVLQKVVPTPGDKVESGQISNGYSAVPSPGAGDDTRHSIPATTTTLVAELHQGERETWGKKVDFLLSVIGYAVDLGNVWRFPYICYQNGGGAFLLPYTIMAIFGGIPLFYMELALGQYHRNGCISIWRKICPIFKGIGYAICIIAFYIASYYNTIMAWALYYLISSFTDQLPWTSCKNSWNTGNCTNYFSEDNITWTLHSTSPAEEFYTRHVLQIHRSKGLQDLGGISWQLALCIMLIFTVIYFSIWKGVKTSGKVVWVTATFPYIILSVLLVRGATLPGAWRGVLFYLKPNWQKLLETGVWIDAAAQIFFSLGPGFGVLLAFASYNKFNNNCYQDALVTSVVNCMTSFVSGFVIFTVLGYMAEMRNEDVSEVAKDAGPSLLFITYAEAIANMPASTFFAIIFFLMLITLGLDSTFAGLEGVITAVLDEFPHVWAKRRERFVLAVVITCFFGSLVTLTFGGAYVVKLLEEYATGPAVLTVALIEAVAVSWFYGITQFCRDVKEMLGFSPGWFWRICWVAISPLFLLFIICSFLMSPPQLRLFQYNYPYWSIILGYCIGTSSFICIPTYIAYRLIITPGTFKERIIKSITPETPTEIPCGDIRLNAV
T1 sequence (P35348 whole entry): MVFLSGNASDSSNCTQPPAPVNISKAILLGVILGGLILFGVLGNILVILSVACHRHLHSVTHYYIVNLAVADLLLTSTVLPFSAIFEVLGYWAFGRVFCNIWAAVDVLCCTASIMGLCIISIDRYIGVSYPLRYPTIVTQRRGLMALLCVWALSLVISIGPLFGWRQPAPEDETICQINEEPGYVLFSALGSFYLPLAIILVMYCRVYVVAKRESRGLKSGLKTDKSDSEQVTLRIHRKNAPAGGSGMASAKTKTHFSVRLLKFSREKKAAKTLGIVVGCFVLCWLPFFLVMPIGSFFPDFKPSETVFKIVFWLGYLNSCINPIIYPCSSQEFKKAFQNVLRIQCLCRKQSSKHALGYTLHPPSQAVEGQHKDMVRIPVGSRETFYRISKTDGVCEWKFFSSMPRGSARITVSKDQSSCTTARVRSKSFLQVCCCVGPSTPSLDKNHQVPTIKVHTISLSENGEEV
T2 sequence (P28223 whole entry): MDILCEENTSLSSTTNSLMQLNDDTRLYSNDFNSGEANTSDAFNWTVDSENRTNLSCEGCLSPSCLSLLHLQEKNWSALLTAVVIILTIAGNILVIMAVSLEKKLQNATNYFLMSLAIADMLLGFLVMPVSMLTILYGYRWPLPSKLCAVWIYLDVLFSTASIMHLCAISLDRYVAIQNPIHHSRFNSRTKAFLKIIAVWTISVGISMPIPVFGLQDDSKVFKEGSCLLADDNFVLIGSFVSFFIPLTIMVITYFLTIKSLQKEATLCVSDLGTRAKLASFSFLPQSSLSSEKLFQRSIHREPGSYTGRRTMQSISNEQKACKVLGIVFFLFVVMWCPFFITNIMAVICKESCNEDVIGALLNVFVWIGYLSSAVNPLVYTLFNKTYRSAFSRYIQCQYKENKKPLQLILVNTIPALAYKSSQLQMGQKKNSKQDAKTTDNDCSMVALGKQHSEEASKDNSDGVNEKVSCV
T3 sequence (P23975 whole entry): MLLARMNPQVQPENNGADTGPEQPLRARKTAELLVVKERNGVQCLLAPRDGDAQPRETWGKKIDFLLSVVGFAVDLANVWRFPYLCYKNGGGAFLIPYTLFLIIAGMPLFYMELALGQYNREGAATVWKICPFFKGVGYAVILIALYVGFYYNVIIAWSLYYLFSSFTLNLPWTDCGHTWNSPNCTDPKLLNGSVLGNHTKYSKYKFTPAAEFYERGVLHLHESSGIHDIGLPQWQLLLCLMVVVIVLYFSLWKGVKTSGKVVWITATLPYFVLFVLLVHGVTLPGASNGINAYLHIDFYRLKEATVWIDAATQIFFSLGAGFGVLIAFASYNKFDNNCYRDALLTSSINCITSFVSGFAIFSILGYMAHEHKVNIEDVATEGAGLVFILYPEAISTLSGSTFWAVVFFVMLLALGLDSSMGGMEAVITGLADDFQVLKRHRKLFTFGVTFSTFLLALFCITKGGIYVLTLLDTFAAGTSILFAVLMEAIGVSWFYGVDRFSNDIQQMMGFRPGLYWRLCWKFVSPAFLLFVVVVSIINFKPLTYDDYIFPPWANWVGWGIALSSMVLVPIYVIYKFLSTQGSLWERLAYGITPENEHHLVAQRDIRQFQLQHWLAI
T5 sequence (P14416 1-414 isoform P14416-2): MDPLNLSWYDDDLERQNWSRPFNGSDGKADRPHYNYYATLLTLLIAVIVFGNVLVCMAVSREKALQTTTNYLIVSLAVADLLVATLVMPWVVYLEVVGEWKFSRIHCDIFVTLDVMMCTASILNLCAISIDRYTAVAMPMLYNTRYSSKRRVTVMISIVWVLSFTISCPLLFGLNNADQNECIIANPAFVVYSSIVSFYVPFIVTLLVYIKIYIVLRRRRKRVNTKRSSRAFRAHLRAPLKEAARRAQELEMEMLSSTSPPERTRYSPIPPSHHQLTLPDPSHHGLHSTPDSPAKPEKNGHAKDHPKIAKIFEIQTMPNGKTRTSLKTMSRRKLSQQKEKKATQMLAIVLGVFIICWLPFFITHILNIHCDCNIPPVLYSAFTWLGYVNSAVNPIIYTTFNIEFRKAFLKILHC
T6 sequence (P21728 whole entry): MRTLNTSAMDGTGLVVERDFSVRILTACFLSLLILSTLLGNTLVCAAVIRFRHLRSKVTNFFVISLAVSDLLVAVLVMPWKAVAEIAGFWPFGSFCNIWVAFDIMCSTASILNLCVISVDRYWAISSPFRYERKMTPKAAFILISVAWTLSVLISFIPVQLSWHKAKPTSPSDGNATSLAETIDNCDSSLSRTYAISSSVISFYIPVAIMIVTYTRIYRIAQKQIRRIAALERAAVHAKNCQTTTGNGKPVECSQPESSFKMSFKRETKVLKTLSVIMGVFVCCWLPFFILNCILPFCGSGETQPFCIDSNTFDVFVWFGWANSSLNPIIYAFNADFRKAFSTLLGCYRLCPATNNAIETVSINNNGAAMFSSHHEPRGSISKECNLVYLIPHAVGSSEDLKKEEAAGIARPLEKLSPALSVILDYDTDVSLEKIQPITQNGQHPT
T4 sequence (P41595 whole entry): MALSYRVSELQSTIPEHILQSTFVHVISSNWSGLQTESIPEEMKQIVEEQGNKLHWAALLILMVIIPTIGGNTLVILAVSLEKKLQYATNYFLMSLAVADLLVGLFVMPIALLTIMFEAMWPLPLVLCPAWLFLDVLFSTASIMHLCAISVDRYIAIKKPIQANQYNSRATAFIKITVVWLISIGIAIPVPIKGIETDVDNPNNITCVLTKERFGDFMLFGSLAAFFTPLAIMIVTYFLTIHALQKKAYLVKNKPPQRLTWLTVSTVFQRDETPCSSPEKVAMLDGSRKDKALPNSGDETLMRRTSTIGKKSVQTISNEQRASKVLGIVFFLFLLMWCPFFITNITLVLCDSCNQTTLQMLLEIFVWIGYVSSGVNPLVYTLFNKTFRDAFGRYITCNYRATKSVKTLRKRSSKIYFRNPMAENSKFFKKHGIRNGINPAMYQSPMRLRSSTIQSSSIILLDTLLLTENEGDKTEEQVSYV

O=C(O)COCCN1CCN(C2=Nc3ccccc3Oc3ccc(Cl)cc32)CC1 [Compound 6]
binding inhibition (adrenergic α1A receptor; 10 µM): substantial binding | binding inhibition ([1]; 10 µM): substantial binding | binding inhibition ([2]; 10 µM): substantial binding | binding inhibition ([3]; 10 µM): substantial binding | binding inhibition (dopamine D2S receptor; 10 µM): substantial binding | binding inhibition (dopamine D1 receptor; 10 µM): substantial binding | binding inhibition ([4]; 10 µM): substantial binding | increase in Tm (purified human Slack): 9.3 °C | melting temperature Tm of Slack (purified human Slack): 39.3 ± 0.9 °C

CN1CCN(C2=Nc3ccccc3Oc3ccc(Cl)cc32)CC1 [Loxapine, reference compound]
inhibition at 10 µM (adrenergic α1A receptor; read-out: binding inhibition): > 50% | inhibition at 10 µM ([1]; read-out: binding inhibition): > 50% | inhibition at 10 µM ([2]; read-out: binding inhibition): > 50% | inhibition at 10 µM ([3]; read-out: binding inhibition): > 50% | inhibition at 10 µM (dopamine D2S receptor; read-out: binding inhibition): > 50% | inhibition at 10 µM (dopamine D1 receptor; read-out: binding inhibition): > 50% | inhibition at 10 µM ([4]; read-out: binding inhibition): > 50% | increase in Tm (purified human Slack): 7.8 °C | melting temperature Tm of Slack (purified human Slack): 37.8 ± 1.3 °C
